The CheMixHub drug solubility set

Experiment: xn = mol fraction of the nth substance listed, in the solute-free solvent

Nc1ccc(Oc2ccc(N)cc2)cc1 + CC(=O)N(C)C + CCO
solubility (g/100 g solution)
Conditions	293.15 K	298.15 K	303.15 K	308.15 K	313.15 K	318.15 K	323.15 K	328.15 K	333.15 K
x2 = 0.0555	0.741	0.782	0.905	1.15	1.39	1.68	1.96	2.28	2.64
x2 = 0.1168	1.32	1.4	1.59	1.94	2.32	2.66	3	3.15	4.12
x2 = 0.1848	2.35	2.56	2.88	3.13	3.63	4.09	4.68	4.75	6.13
x2 = 0.2606	3.91	4.24	4.6	5.13	5.62	6.3	7.13	7.67	8.79
x2 = 0.3459	6.23	6.74	7.16	7.94	8.38	9.29	10.3	11	12.2
x2 = 0.4423	9.4	10	10.6	11.4	12	13.1	14	15.2	16.3
x2 = 0.5523	13.3	14.1	14.8	15.3	16.3	17.5	18.6	19.7	21.1
x2 = 0.679	17.9	18.6	19.3	20.2	21	22	23.2	24.2	25.1
x2 = 0.8264	22.6	23.5	24	24.5	25.6	26.7	27.4	28.7	30

Nc1ccc(Oc2ccc(N)cc2)cc1 + COCCO + CCO
solubility (g/100 g solution)
Conditions	293.15 K	298.15 K	303.15 K	308.15 K	313.15 K	318.15 K	323.15 K	328.15 K	333.15 K
x2 = 0.06303	0.499	0.623	0.747	0.912	1.12	1.28	1.53	1.85	2.05
x2 = 0.1315	0.717	0.756	1.15	1.31	1.47	1.66	2.05	2.13	2.67
x2 = 0.206	1.06	1.1	1.51	1.67	1.81	2.26	2.59	2.89	3.33
x2 = 0.2875	1.41	1.52	2.06	2.16	2.37	2.9	3.32	3.5	4.01
x2 = 0.3771	1.82	2.06	2.54	2.67	3.1	3.47	4.03	4.26	4.95
x2 = 0.4759	2.25	2.54	3.08	3.31	3.71	4.25	4.81	4.96	5.85
x2 = 0.5855	2.84	3.2	3.71	4.1	4.42	5.1	5.68	6.03	6.84
x2 = 0.7077	3.66	3.97	4.45	4.86	5.25	6.05	6.65	7.22	7.97
x2 = 0.8449	4.52	4.75	5.33	5.75	6.21	6.99	7.7	8.23	9.05

c1ccc2[nH]c(-c3cscn3)nc2c1 + CC(C)O + O
solubility (g/100 g solution)
Conditions	283.15 K	288.15 K	293.15 K	298.15 K	303.15 K	308.15 K	313.15 K	318.15 K	323.15 K
x2 = 0.03225	0.00182	0.0023	0.00284	0.00356	0.0044	0.00539	0.00665	0.00808	0.00978
x2 = 0.06974	0.00792	0.00964	0.0123	0.015	0.0183	0.022	0.0263	0.0311	0.0368
x2 = 0.1139	0.0206	0.0251	0.0303	0.0374	0.0453	0.0539	0.064	0.0751	0.0876
x2 = 0.1666	0.0372	0.0456	0.0555	0.0669	0.0796	0.0936	0.113	0.131	0.156
x2 = 0.2307	0.0599	0.0732	0.0858	0.101	0.121	0.143	0.169	0.197	0.23
x2 = 0.3103	0.0907	0.109	0.127	0.148	0.178	0.204	0.234	0.27	0.312
x2 = 0.4117	0.131	0.154	0.181	0.213	0.249	0.287	0.329	0.379	0.433
x2 = 0.5454	0.16	0.192	0.225	0.262	0.301	0.347	0.399	0.459	0.529
x2 = 0.7297	0.197	0.23	0.268	0.309	0.36	0.413	0.47	0.534	0.6

CC(C)OC(=O)C(C)NP(=O)(OCC1OC(n2ccc(=O)[nH]c2=O)C(C)(F)C1O)Oc1ccccc1 (centres undefined) + CC(C)=O + O
solubility (g/100 g solution)
Conditions	278.15 K	283.15 K	288.15 K	293.15 K	298.15 K	303.15 K	308.15 K	313.15 K	318.15 K
x2 = 0.03333	0.447	0.659	0.884	1.19	1.57	2.08	2.72	3.52	4.39
x2 = 0.07199	1.86	2.63	3.43	4.47	5.72	7.3	9.16	11.4	13.7
x2 = 0.1174	3.81	5.24	6.7	8.54	10.7	13.3	16.2	19.6	23.1
x2 = 0.1714	5.39	7.25	9.19	11.6	14.2	17.4	21	25.1	29.1
x2 = 0.2368	6.68	8.82	11.1	13.8	16.9	20.4	24.2	28.4	32.6
x2 = 0.3176	8.37	10.8	13.6	16.7	20.2	24	28.1	32.4	36.8
x2 = 0.42	11.2	14.2	17.5	21.1	24.9	28.9	33.3	37.8	42.6
x2 = 0.5538	15	18.1	21.8	26.1	30.7	35.3	40.1	45	49.6
x2 = 0.7363	18.3	22.9	27.4	32.1	37.1	42.2	47	51.8	56.6
